Data: US8476306B2, “Urokinase inhibitors, production and use thereof” (The Medicines Company (Leipzig) GmbH, priority 2002, dated 2013)
Structures can show the parent of a compound that is named as a salt.

Key:
[1] = biological target: sc urokinase (Homo sapiens (Human), UniProt P00749); experiment: Inhibiting urokinase with 4-amidinobenzylamide compounds (chromogenic substrate Bzl-βAla-Gly-Arg-pNA, Dixon Ki); type: biochemical; settings: 25° C., pH 8.0, means of at least three determinations
Source text: Determining the Inhibitory Effect
The Ki values are the means of at least three determinations.

[2] = biological target: thrombin (Homo sapiens (Human), UniProt P00734); experiment: Inhibition constants for thrombin, determined in analogy to uPA; type: biochemical
[3] = biological target: plasmin (Homo sapiens (Human), UniProt P00747); experiment: Inhibition constants for plasmin, determined in analogy to uPA; type: biochemical
[4] = biological target: uPA (Homo sapiens (Human), UniProt P00749); experiment: Inhibition constants for uPA, determined as in Stürzebecher et al. 1997; type: biochemical
[5] = Elimination (β phase) half-life in rats after intravenous administration, plasma levels by HPLC; settings: for half-life: female, Wistar, rat, plasma, iv, 1 mg/kg; for elimination (β phase) half-life t1/2: rats, intravenous administration 1 mg/kg
Experimental: Female Wistar rats (240-300 g body weight) were anesthetized (ethylurethane, 2.5 g/ml in NaCl, 0.5 ml/100 g rat), after which the A. carotis located in the neck was exposed. A catheter inserted into this vessel enabled blood to be removed at specified times. The volume administered was 0.5 ml, while 0.9% NaCl was used as the administration solution. […] The resultant loss of blood was offset, immediately after removal of the sample, with 500 μl of 0.9% NaCl solution. Citrate plasma was obtained by centrifuging the blood at 1200×g for 10 min.

[6] = biological target: trypsin; experiment: Inhibition constants for trypsin, determined in analogy to uPA; type: biochemical
[7] = tested on: lacZ-labeled human fibrosarcoma cell line (HT1080 AN PKZ12 K15-1); experiment: Inhibiting metastasis in an animal model (lung metastases, lacZ-labeled human fibrosarcoma cells i.v.); type: in vivo, mice (strain CD1 nu/nu); settings: mice, 2 i.p. doses of 1.5 mg/kg daily from day −1 to day 21, lungs evaluated on day 22
Experimental: The influence of the inhibitor benzylsulfonyl-dSer-Ser-4-amidinobenzylamide on metastasis was investigated in female mice (strain CD1 nu/nu, approx. 25 g body weight, Charles River, Sulzfeld). […] from a lacZ-labeled human fibrosarcoma cell line (HT1080 AN PKZ12 K15-1, dissolved in 200 μl of PBS) were administered to the mice i.v. (Krüger et al., Cancer Metastasis Rev. 1998-99, 17, 285-294 and Krüger et al., Oncogene 1998, 16, 2419-2423). The mice in the treated group (n=17) were given 2 i.p. doses (in each case 1.5 mg/kg) of the inhibitor daily from day −1 (one day before the tumor cell inoculation) through to the 21st day (a total of 23 days). The mice in the control group (n=10) were correspondingly given 200 μl of pyrogen-free water containing 5% (v/v) ethanol. On day 22, the mice were sacrificed and the lungs were fixed in 2% formalin and 0.2% glutaraldehyde; after that, the lungs were stained with X-Gal (5-Br-4-Cl-3-indolyl-β-D-galactoside) and the number of lung metastases was determined.

[8] = after s.c. administration; following acylation of the D-Ser hydroxyl; cited from earlier work
[9] = biological target: trypsin (Bos taurus, UniProt P00760); experiment: Inhibition constants for trypsin, determined in analogy to uPA; type: biochemical
Chain of trypsin (Bos taurus, UniProt P00760) (P00760 24-246 limits assumed): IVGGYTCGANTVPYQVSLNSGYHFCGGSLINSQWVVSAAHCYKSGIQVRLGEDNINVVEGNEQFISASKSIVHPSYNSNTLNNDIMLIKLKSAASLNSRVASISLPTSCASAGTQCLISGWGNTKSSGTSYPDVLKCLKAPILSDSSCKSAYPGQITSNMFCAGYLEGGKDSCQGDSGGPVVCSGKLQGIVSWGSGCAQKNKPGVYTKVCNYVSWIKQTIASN

Chain of trypsin (P00760 24-246 limits assumed): as above
Chain of plasmin (P00747 581-810, species assumed): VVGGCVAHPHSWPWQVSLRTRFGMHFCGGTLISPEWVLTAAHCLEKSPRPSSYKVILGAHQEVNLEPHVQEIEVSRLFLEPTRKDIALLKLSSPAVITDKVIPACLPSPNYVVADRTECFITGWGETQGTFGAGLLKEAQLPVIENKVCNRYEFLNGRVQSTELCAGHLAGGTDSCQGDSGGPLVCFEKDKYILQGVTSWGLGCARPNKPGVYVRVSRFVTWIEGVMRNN
Chain of plasmin (P00747 97-580 partner, species assumed): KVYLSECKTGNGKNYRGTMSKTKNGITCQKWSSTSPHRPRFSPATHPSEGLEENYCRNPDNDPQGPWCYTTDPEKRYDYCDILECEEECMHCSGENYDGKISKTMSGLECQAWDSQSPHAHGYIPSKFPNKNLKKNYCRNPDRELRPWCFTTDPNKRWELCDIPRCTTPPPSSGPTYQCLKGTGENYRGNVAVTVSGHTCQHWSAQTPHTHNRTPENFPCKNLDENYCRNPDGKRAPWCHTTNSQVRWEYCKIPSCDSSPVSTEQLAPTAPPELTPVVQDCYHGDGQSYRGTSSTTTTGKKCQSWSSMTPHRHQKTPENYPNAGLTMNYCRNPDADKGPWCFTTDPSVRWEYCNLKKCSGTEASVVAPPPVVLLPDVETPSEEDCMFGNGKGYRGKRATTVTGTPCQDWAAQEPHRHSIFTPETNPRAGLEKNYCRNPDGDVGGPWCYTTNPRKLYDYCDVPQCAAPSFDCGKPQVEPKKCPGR

Ki [1] [nM] | Ki [2] [nM] | Ki [3] [nM] | Ki [4] [nM] | half-life [5] [min] | Ki [6] [nM] | elimination (β phase) half-life t1/2 [5] [min] | Ki [9] [nM] | Compound | number of lung metastases as compared with the control group (100%) [7] [%] | relative bioavailability [8] [%]
860 | – | – | – | – | – | – | – | N=C(N)c1ccc(CNC(=O)[C@H](CC(=O)O)NC(=O)[C@@H](CO)NS(=O)(=O)Cc2ccccc2)cc1 | – | –
160 | – | – | – | – | – | – | – | N=C(N)c1ccc(CNC(=O)[C@H](CCC(=O)O)NC(=O)[C@@H](CO)NS(=O)(=O)Cc2ccccc2)cc1 [Benzylsulfonyl-D-Ser-Glu-4-amidinobenzylamide×TFA] | – | –
– | 1400 | 530 | 42 | 52.8 | – | – | – | N=C(N)c1ccc(CNC(=O)[C@H](CCCCNC(=O)COCC(=O)NCCOCCOCCOCCOCCOCCOCCOCCN)NC(=O)[C@@H](CO)NS(=O)(=O)Cc2ccccc2)cc1 [Example 10, Bzls-dSer-Lys(CO—CH2—O—CH2—CO—NH—CH2—CH2-Hexaethylene-glycol-CH2—CH2—NH2)-4-amidinobenzylamide×2 TFA] | – | –
– | 10000 | 9600 | 180 | – | 180 | – | – | N=C(N)c1ccc(CNC(=O)CNC(=O)[C@@H](CN)NS(=O)(=O)Cc2ccccc2)cc1 [Example 11, Benzylsulfonyl-dDap-Gly-4-Amba] | – | –
– | 8500 | 400 | 110 | – | 25 | – | – | N=C(N)c1ccc(CNC(=O)[C@H](Cc2cnc[nH]2)NC(=O)[C@@H](CO)NS(=O)(=O)Cc2ccccc2)cc1 [Example 12, Benzylsulfonyl-dSer-His-4-Amba] | – | –
– | 60000 | 27000 | 130 | – | 300 | – | – | N=C(N)c1ccc(CNC(=O)CNC(=O)[C@@H](CO)NS(=O)(=O)Cc2ccc(CC(=O)O)cc2)cc1 [Example 13, 4(HOOC—CH2)Benzylsulfonyl-dSer-Gly-4-Amba] | – | –
– | 56000 | 220000 | 370 | – | 2400 | – | – | N=C(N)c1ccc(CNC(=O)CNC(=O)[C@@H](CO)NS(=O)(=O)Cc2ccccc2C(=O)O)cc1 [R=2-COOH, X=CH, R1=H] | – | –
– | 4000 | 38000 | 83 | – | 400 | – | – | COC(=O)c1ccccc1CS(=O)(=O)N[C@H](CO)C(=O)NCC(=O)NCc1ccc(C(=N)N)cc1 [R=2-COOMe, X=CH, R1=H] | – | –
– | 8300 | 32000 | 110 | – | 600 | – | – | N=C(N)c1ccc(CNC(=O)CNC(=O)[C@@H](CO)NS(=O)(=O)Cc2ccc(Cl)c(Cl)c2)cc1 [R=3,4-di-Cl, X=CH, R1=H] | – | –
– | 200000 | 4200 | 75 | – | 58 | 25.8 | – | N=C(N)c1ccc(CNC(=O)[C@H](CO)NC(=O)[C@@H](CO)NS(=O)(=O)Cc2cccc(C(=O)O)c2)cc1 [R=3-COOH, X=CH, R1=CH2—OH] | – | –
– | 8300 | 4700 | 30 | – | 21 | 25.2 | – | C[C@H](NC(=O)[C@@H](CO)NS(=O)(=O)Cc1cccc(C(=O)O)c1)C(=O)NCc1ccc(C(=N)N)cc1 [R=3-COOH, X=CH, R1=CH3] | – | –
– | 150000 | 59000 | 160 | 78 | – | – | – | N=C(N)c1ccc(CNC(=O)CNC(=O)[C@@H](CO)NS(=O)(=O)Cc2cccc(C(=O)O)c2)cc1.O=C(O)C(F)(F)F [R=3-COOH, X=CH, R1=H, 3-(HOOC)Benzylsulfonyl-dSer-Gly-4-amidinobenzylamide×TFA] | – | –
– | 42000 | 28000 | 120 | – | 290 | – | – | COC(=O)c1cccc(CS(=O)(=O)N[C@H](CO)C(=O)NCC(=O)NCc2ccc(C(=N)N)cc2)c1 [R=3-COOMe, X=CH, R1=H] | – | –
– | 8000 | 7400 | – | – | – | – | – | N=C(N)c1ccc(CNC(=O)CNC(=O)[C@@H](CO)NS(=O)(=O)Cc2ccc(CN)cc2)cc1 [R=4-(NH2—CH2), X=CH, R1=H, 4-(Aminomethyl)benzylsulfonyl-dSer-Gly-4-amidinobenzylamide×2 TFA] | – | –
– | 8500 | 27000 | 89 | – | 340 | – | – | N#Cc1ccc(CS(=O)(=O)N[C@H](CO)C(=O)NCC(=O)NCc2ccc(C(=N)N)cc2)cc1 [R=4-CN, X=CH, R1=CH] | – | –
– | 120000 | 6200 | 230 | – | 100 | 25.8 | – | N=C(N)c1ccc(CNC(=O)[C@H](CO)NC(=O)[C@@H](CO)NS(=O)(=O)Cc2ccc(C(=O)O)cc2)cc1 [R=4-COOH, X=CH, R1=CH2—OH] | – | –

Ki [1] [nM] | Ki [2] [nM] | Ki [3] [nM] | Ki [4] [nM] | half-life [5] [min] | Ki [6] [nM] | elimination (β phase) half-life t1/2 [5] [min] | Ki [9] [nM] | Compound | number of lung metastases as compared with the control group (100%) [7] [%] | relative bioavailability [8] [%]
– | 2300 | 3000 | 38 | – | 13 | 39.6 | – | C[C@H](NC(=O)[C@@H](CO)NS(=O)(=O)Cc1ccc(C(=O)O)cc1)C(=O)NCc1ccc(C(=N)N)cc1 [R=4-COOH, X=CH, R1=CH3] | – | –
– | 170000 | 35000 | 150 | – | 480 | 120 | – | N=C(N)c1ccc(CNC(=O)CNC(=O)[C@@H](CO)NS(=O)(=O)Cc2ccc(C(=O)O)cc2)cc1 [R=4-COOH, X=CH, R1=H] | – | –
– | 4200 | 960 | 230 | – | 20 | – | – | COC(=O)c1ccc(CS(=O)(=O)N[C@H](CO)C(=O)N[C@@H](CO)C(=O)NCc2ccc(C(=N)N)cc2)cc1 [R=4-COOMe, X=CH, R1=CH2—OH] | – | –
– | 9400 | 17000 | 620 | – | 180 | – | – | COC(=O)c1ccc(CS(=O)(=O)N[C@H](CO)C(=O)NCC(=O)NCc2ccc(C(=N)N)cc2)cc1 [R=4-COOMe, X=CH, R1=H] | – | –
– | 7900 | 32000 | 32 | – | 350 | – | – | N=C(N)c1ccc(CNC(=O)CNC(=O)[C@@H](CO)NS(=O)(=O)Cc2ccc(Cl)cc2)cc1 [R=4-Cl, X=CH, R1=H] | – | –
– | 7900 | 20000 | 31 | – | 110 | – | – | N=C(N)c1ccc(CNC(=O)CNC(=O)[C@@H](CO)NS(=O)(=O)Cc2ccc(F)cc2)cc1 [R=4-F, X=CH, R1=H] | – | –
– | 8000 | 18000 | 58 | – | 210 | – | – | Cc1ccc(CS(=O)(=O)N[C@H](CO)C(=O)NCC(=O)NCc2ccc(C(=N)N)cc2)cc1 [R=4-Me, X=CH, R1=H] | – | –
– | 780 | 810 | 36 | – | 21 | 24 | – | N=C(N)c1ccc(CNC(=O)[C@H](CN)NC(=O)[C@@H](CO)NS(=O)(=O)Cc2ccccc2)cc1 [R=H, X=CH, R1=CH2—NH2] | – | –
– | 480 | 270 | 28 | – | 6.8 | – | – | N=C(N)c1ccc(CNC(=O)[C@H](COCc2ccccc2)NC(=O)[C@@H](CO)NS(=O)(=O)Cc2ccccc2)cc1 [R=H, X=CH, R1=CH2—O(Bzl)] | – | –
– | 14000 | 750 | 25 | 30 | – | – | – | N=C(N)c1ccc(CNC(=O)[C@H](CO)NC(=O)[C@@H](CO)NS(=O)(=O)Cc2ccccc2)cc1 [R=H, X=CH, R1=CH2—OH, Benzylsulfonyl-dSer-Ser-4-amidinobenzylamide×TFA] | 4.6 | –
– | 100 | 1100 | 61 | – | 11 | – | – | CC(OCc1ccccc1)[C@H](NC(=O)[C@@H](CO)NS(=O)(=O)Cc1ccccc1)C(=O)NCc1ccc(C(=N)N)cc1 (stereo partly drawn) [R=H, X=CH, R1=CH(OBzl)CH3] | – | –
– | 4000 | 1400 | 110 | – | 30 | – | – | CC(O)[C@H](NC(=O)[C@@H](CO)NS(=O)(=O)Cc1ccccc1)C(=O)NCc1ccc(C(=N)N)cc1 (stereo partly drawn) [R=H, X=CH, R1=CH(OH)CH3] | – | –
– | 4700 | 200 | – | 36 | – | – | – | N=C(N)c1ccc(CNC(=O)[C@H](CCCN=C(N)N)NC(=O)[C@@H](CO)NS(=O)(=O)Cc2ccccc2)cc1 [X=Arg, Benzylsulfonyl-dSer-Arg-4-amidinobenzylamide×2 TFA] | – | –
– | 4300 | 360 | – | 42 | – | – | – | N=C(N)c1ccc(CNC(=O)[C@H](CCCCN)NC(=O)[C@@H](CO)NS(=O)(=O)Cc2ccccc2)cc1 [X=Lys, Benzylsulfonyl-dSer-Lys-4-amidinobenzylamide×2 TFA] | – | –
– | – | – | – | – | – | – | – | CC(C)COC(=O)N[C@H](CO)C(=O)N[C@@H](C)C(=O)N[C@H](C=O)CCCNC(=N)N [iBuOCO-D-Ser-Ala-Arg-H] | – | 87
– | 1700 | 730 | 95 | – | – | – | 34 | Benzylsulfonyl-dSer-Lys(CO—O-PEG5000-OMe)-4-amidinobenzylamide×Acetate [Example 9] | – | –

Compound | Ki [1] [nM] | Ki [2] [nM] | Ki [3] [nM] | Ki [4] [nM] | half-life [5] [min] | Ki [6] [nM] | elimination (β phase) half-life t1/2 [5] [min] | Ki [9] [nM] | number of lung metastases as compared with the control group (100%) [7] [%] | relative bioavailability [8] [%]
N=C(N)c1ccc(CNC(=O)CNC(=O)[C@@H](CO)NS(=O)(=O)Cc2ccccc2)cc1 [R=H, X=CH, R1=H, Benzylsulfonyl-D-Ser-Gly-4-amidinobenzylamide] | – | 13000 | 11000 | – | – | 150 | 17.4 | – | – | –
